Test results reported in publication PMC10247784, “Physiological activation of human and mouse bitter taste receptors by bile acids” (Communications Biology, 2023).
Like-named read-outs stand apart in the source and are kept apart here.

Target: T1, mouse Tas2r117 (Mus musculus, UniProt Q7M715)
T1 construct: expressed in transfected cells; host or cells: HEK293T-Gα16gust44
T1 sequence (Q7M715 1-330): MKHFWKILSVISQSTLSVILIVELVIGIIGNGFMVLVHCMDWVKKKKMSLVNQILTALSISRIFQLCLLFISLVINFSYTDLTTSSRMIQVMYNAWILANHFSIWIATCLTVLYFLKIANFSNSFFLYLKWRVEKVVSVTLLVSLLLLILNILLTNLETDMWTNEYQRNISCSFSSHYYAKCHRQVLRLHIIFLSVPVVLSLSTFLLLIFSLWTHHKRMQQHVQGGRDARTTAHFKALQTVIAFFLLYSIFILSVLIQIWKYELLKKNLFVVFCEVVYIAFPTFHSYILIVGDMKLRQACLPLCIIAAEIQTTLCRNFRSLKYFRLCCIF
Test: Calcium imaging assay (FLIPR), HEK293T-Gα16gust44 cells transfected with mouse Tas2r117
Type: cell-based
Experimental: This set of bile acids was chosen because of their commercial availability in high purities, their diversity within the class of bile acids and their previous detection and quantitation in human blood. Stock solutions were prepared in DMSO.
As basal growth medium for the HEK293T-Gα16gust44 cell line[17],[59] served Dulbecco’s modified eagle medium (DMEM) (Thermo Fisher Scientific, Darmstadt, Germany) supplemented with 10 % fetal bovine serum (Sigma-Aldrich, Steinheim, Germany), 2 mM L-glutamine (Sigma-Aldrich, Steinheim, Germany), 100 units/ml penicillin (Sigma Aldrich, Steinheim, Germany) and 100 µg/ml streptomycin (Sigma Aldrich, Steinheim, Germany). Growth conditions were 37 °C, 5 % CO2 and saturated air-humidity[60].
HEK293T-Gα16gust44 cells were seeded on poly-D-lysine (10 µg/ml) coated 96-well plates to reach a confluence of 40-60 % the next day. For transient transfection 150 ng of plasmid DNA containing the receptor of interest and 0.3 µl lipofectamine 2000 (Thermo Fisher Scientific, Darmstadt, Germany) per well were used and transfection took place according to the manual of lipofectamine 2000. […] The empty vector DNA (mock) was transfected as negative control[14],[41].
Cells were loaded using the calcium-sensitive fluorescent dye Fluo-4-AM (Abcam, Cambridge, Great Britain) in the presence of 2.5 mM probenecid (Sigma-Aldrich, Steinheim, Germany) the day after transfection[13],[41]. 1 h after loading, cells were washed with C1 buffer using a BioTek Cell Washer, incubated in the dark for half an hour and washed again. For automated agonist application and measurement of fluorescence changes, a FLIPR^TETRA device (Molecular Devices, San José, United States) was used. Viability of cells was tested by application of 100 nM Somatostatin 14 (Bachem, Bubendorf, Switzerland)[42].
Measured data were negative control corrected by subtracting the signal of the mock-transfected cells and exported to Microsoft Excel using the FLIPR software ScreenWorks 4.2. In Microsoft Excel software, standardization of maximum fluorescence intensities to the basal fluorescence and normalization to the buffer-only control was done to calculate the relative fluorescence changes (ΔF/F).
Initial screening experiments performed in duplicate wells were confirmed by at least one replication and representative traces were selected for display. All dose-response relationships were determined by three independent experiments (biological replicates) performed in duplicates (technical replicates). Threshold concentrations, defined as lowest substance concentrations leading to statistically significant elevated fluorescence changes in receptor-transfected cells compared with empty vector-transfected cells, were determined using SigmaPlot with Student’s t-test to evaluate statistical significance (p < 0.01).

In the case of `C[C@H](CCC(=O)O)[C@H]1CC[C@H]2[C@@H]3[C@H](O)C[C@@H]4C[C@H](O)CC[C@]4(C)[C@H]3C[C@H](O)[C@]12C` [Cholic Acid, cholic acid], the EC50 is reported as 20.6 ± 5.1 µM, the RLU is reported as 487.07 RLU and the RLU (Time (s) 0, sheet Tas2r117, time trace) is reported as 0 RLU. It also gave an RLU (Time (s) 2, sheet Tas2r117, time trace) of 4.604 RLU, an RLU (Time (s) 4, sheet Tas2r117, time trace) of 10.2904 RLU and an RLU (Time (s) 6, sheet Tas2r117, time trace) of -0.8806 RLU. For the same compound, the RLU (Time (s) 8, sheet Tas2r117, time trace) was 6.861 RLU, the RLU (Time (s) 12, sheet Tas2r117, time trace) was -14.1517 RLU and the RLU (Time (s) 14, sheet Tas2r117, time trace) was 7.665 RLU. For the same compound, the RLU (Time (s) 16, sheet Tas2r117, time trace) was -9.341 RLU, the RLU (Time (s) 18, sheet Tas2r117, time trace) was -12.0783 RLU and the RLU (Time (s) 18.797, sheet Tas2r117, time trace) was -24.6076 RLU. For the same compound, the RLU (Time (s) 20.797, sheet Tas2r117, time trace) was -3.383 RLU, the RLU (Time (s) 22.797, sheet Tas2r117, time trace) was 39.9085 RLU and the RLU (Time (s) 24.797, sheet Tas2r117, time trace) was 65.6016 RLU. The RLU (Time (s) 26.797, sheet Tas2r117, time trace) was 75.6489 RLU, the RLU (Time (s) 28.797, sheet Tas2r117, time trace) was 128.888 RLU and the RLU (Time (s) 30.797, sheet Tas2r117, time trace) was 168.759 RLU. It also gave an RLU (Time (s) 32.797, sheet Tas2r117, time trace) of 221.976 RLU, an RLU (Time (s) 34.797, sheet Tas2r117, time trace) of 270.035 RLU and an RLU (Time (s) 36.797, sheet Tas2r117, time trace) of 288.662 RLU. It also gave an RLU (Time (s) 38.797, sheet Tas2r117, time trace) of 310.785 RLU, an RLU (Time (s) 40.797, sheet Tas2r117, time trace) of 342.959 RLU and an RLU (Time (s) 42.797, sheet Tas2r117, time trace) of 363.04 RLU. It also gave an RLU (Time (s) 44.797, sheet Tas2r117, time trace) of 380.411 RLU, an RLU (Time (s) 46.797, sheet Tas2r117, time trace) of 395.355 RLU and an RLU (Time (s) 48.797, sheet Tas2r117, time trace) of 398.151 RLU. The RLU (Time (s) 50.797, sheet Tas2r117, time trace) was 423.224 RLU, the RLU (Time (s) 52.797, sheet Tas2r117, time trace) was 441.862 RLU and the RLU (Time (s) 54.797, sheet Tas2r117, time trace) was 446.522 RLU. The RLU (Time (s) 56.797, sheet Tas2r117, time trace) was 453.199 RLU, the RLU (Time (s) 58.797, sheet Tas2r117, time trace) was 444.318 RLU and the RLU (Time (s) 60.797, sheet Tas2r117, time trace) was 456.236 RLU. The RLU (Time (s) 62.797, sheet Tas2r117, time trace) was 461.012 RLU, the RLU (Time (s) 64.797, sheet Tas2r117, time trace) was 474.623 RLU and the RLU (Time (s) 66.797, sheet Tas2r117, time trace) was 445.559 RLU. It also gave an RLU (Time (s) 70.797, sheet Tas2r117, time trace) of 480.113 RLU, an RLU (Time (s) 72.797, sheet Tas2r117, time trace) of 466.131 RLU and an RLU (Time (s) 74.797, sheet Tas2r117, time trace) of 473.506 RLU. It also gave an RLU (Time (s) 76.797, sheet Tas2r117, time trace) of 498.186 RLU, an RLU (Time (s) 78.797, sheet Tas2r117, time trace) of 506.034 RLU and an RLU (Time (s) 80.797, sheet Tas2r117, time trace) of 507.589 RLU. For the same compound, the RLU (Time (s) 82.797, sheet Tas2r117, time trace) was 514.994 RLU, the RLU (Time (s) 84.797, sheet Tas2r117, time trace) was 484.679 RLU and the RLU (Time (s) 86.797, sheet Tas2r117, time trace) was 500.585 RLU. It also gave an RLU (Time (s) 88.797, sheet Tas2r117, time trace) of 496.095 RLU, an RLU (Time (s) 90.797, sheet Tas2r117, time trace) of 517.962 RLU and an RLU (Time (s) 92.797, sheet Tas2r117, time trace) of 513.104 RLU. The RLU (Time (s) 94.797, sheet Tas2r117, time trace) was 501.803 RLU, the RLU (Time (s) 96.797, sheet Tas2r117, time trace) was 495.693 RLU and the RLU (Time (s) 98.797, sheet Tas2r117, time trace) was 496.063 RLU. The RLU (Time (s) 100.797, sheet Tas2r117, time trace) was 476.828 RLU, the RLU (Time (s) 102.797, sheet Tas2r117, time trace) was 478.659 RLU and the RLU (Time (s) 104.797, sheet Tas2r117, time trace) was 493.353 RLU. The RLU (Time (s) 106.797, sheet Tas2r117, time trace) was 481.214 RLU, the RLU (Time (s) 108.797, sheet Tas2r117, time trace) was 477.549 RLU and the RLU (Time (s) 110.797, sheet Tas2r117, time trace) was 489.03 RLU. It also gave an RLU (Time (s) 112.797, sheet Tas2r117, time trace) of 467.178 RLU, an RLU (Time (s) 114.797, sheet Tas2r117, time trace) of 460.468 RLU and an RLU (Time (s) 116.797, sheet Tas2r117, time trace) of 475.775 RLU. For the same compound, the RLU (Time (s) 118.797, sheet Tas2r117, time trace) was 475.734 RLU, the RLU (Time (s) 120.797, sheet Tas2r117, time trace) was 478.85 RLU and the RLU (Time (s) 122.797, sheet Tas2r117, time trace) was 455.77 RLU. The RLU (Time (s) 124.797, sheet Tas2r117, time trace) was 448.646 RLU, the RLU (Time (s) 126.797, sheet Tas2r117, time trace) was 473.935 RLU and the RLU (Time (s) 128.797, sheet Tas2r117, time trace) was 443.919 RLU. The RLU (Time (s) 130.797, sheet Tas2r117, time trace) was 439.491 RLU, the RLU (Time (s) 132.797, sheet Tas2r117, time trace) was 446.634 RLU and the RLU (Time (s) 134.797, sheet Tas2r117, time trace) was 438.919 RLU. For the same compound, the RLU (Time (s) 136.797, sheet Tas2r117, time trace) was 440.652 RLU, the RLU (Time (s) 137.562, sheet Tas2r117, time trace) was 432.872 RLU and the RLU (Time (s) 143.578, sheet Tas2r117, time trace) was 412.03 RLU. The RLU (Time (s) 149.578, sheet Tas2r117, time trace) was 376.064 RLU, the RLU (Time (s) 155.578, sheet Tas2r117, time trace) was 372.116 RLU and the RLU (Time (s) 161.578, sheet Tas2r117, time trace) was 346.14 RLU. For the same compound, the RLU (Time (s) 167.578, sheet Tas2r117, time trace) was 348.952 RLU, the RLU (Time (s) 173.578, sheet Tas2r117, time trace) was 334.535 RLU and the RLU (Time (s) 179.578, sheet Tas2r117, time trace) was 329.157 RLU. It also gave an RLU (Time (s) 191.578, sheet Tas2r117, time trace) of 289.619 RLU, an RLU (Time (s) 197.578, sheet Tas2r117, time trace) of 289.013 RLU and an RLU (Time (s) 209.578, sheet Tas2r117, time trace) of 239.803 RLU. The RLU (Time (s) 221.578, sheet Tas2r117, time trace) was 142.758 RLU, the RLU (Time (s) 233.578, sheet Tas2r117, time trace) was 144.622 RLU and the RLU (Time (s) 239.578, sheet Tas2r117, time trace) was 165.061 RLU. It also gave an RLU (Time (s) 245.578, sheet Tas2r117, time trace) of 139.32 RLU, an RLU (Time (s) 293.578, sheet Tas2r117, time trace) of 116.805 RLU and an RLU (Time (s) 299.578, sheet Tas2r117, time trace) of 113.227 RLU. For the same compound, the RLU (Time (s) 305.578, sheet Tas2r117, time trace) was 94.7752 RLU, the RLU (Time (s) 311.578, sheet Tas2r117, time trace) was 118.792 RLU and the RLU (Time (s) 317.578, sheet Tas2r117, time trace) was 98.6072 RLU. It also gave an RLU (Time (s) 323.578, sheet Tas2r117, time trace) of 115.27 RLU, an RLU (Time (s) 329.578, sheet Tas2r117, time trace) of 87.0157 RLU and an RLU (Time (s) 335.578, sheet Tas2r117, time trace) of 73.721 RLU. It also gave an RLU (Time (s) 341.578, sheet Tas2r117, time trace) of 98.5271 RLU, an RLU (Time (s) 347.578, sheet Tas2r117, time trace) of 75.5864 RLU and an RLU (Time (s) 353.578, sheet Tas2r117, time trace) of 82.9151 RLU. The RLU (Time (s) 359.578, sheet Tas2r117, time trace) was 69.2265 RLU and the “Activation threshold concentration Tas2r117” value (p < 0.01 vs empty vector) was 10 µM.
